Results from PMC10584882 (Communications Biology, 2023).
“And” between values parts separate entries of the source, which are not always exact repeats. Equal entries are not always repeated.

Columns and labels:
[1] = tested on: VERO-CCL81 cells; experiment: Cell viability assay (CellTiter-Glo), VERO-CCL81; type: cell-based; conditions: for Cell viability (% control): VERO CCL81, 72 h, replicates of experiments 1 and 2
Protocol: (§1) VERO-CCL81 was seeded in 96-well plates at a density of 1.5×10^4 cells/well, while LC-HK2 was seeded at a density of 3×10^4 cells/well, following 24 h incubation at 37 °C and 5% CO2 atmosphere. The cell culture media was replaced by serial dilutions of the compounds and the cell viability was determined 72 h post-treatment via CellTiter-Glo® Luminescent Cell Viability Assay (Promega), following the manufacturer’s instructions. Luminescent signal was recorded using a CLARIOstar multi-mode microplate reader (BMG Labtech, Germany). Graphs were generated using GraphPad Prism software version 8.0 (La Jolla, CA, USA, www.graphpad.com). Samples deemed to be technical failures and extreme outlier were removed.

[2] = tested on: SARS-CoV-2-GFP; experiment: microbe, parasite or virus in culture; type: cell-based; conditions: Severe acute respiratory syndrome coronavirus 2, Vero C1008, mean with standard error, read-out: VERO E6 EC50
[3] = target: T1, CatL (Homo sapiens, UniProt P07711); experiment: Reversibility of covalent cathepsin inhibition (CatL, 60 min incubation); type: biochemical; conditions: 1 nM CatL, 1–80 nM inhibitor, 37 °C
T1 construct: made in house
Text: We observed no increase in relative inhibition over time, thus concluding that the covalent bond between cathepsins and inhibitors is reversible.

[4] = target: T1, CatL; experiment: Cathepsin inhibition test, CatL; type: biochemical; conditions: for Residual activity (Vi/V0): Fig. S3 panel b, single replicates
[5] = tested on: LC-HK2 cells; experiment: Cell viability assay (CellTiter-Glo), LC-HK2; type: cell-based, human; conditions: for Cell viability (% control): LC-HK2, 72 h, replicates
Protocol: as §1

[6] = tested on: SARS-CoV-2; experiment: Cytopathic effect inhibition assay in VERO-CCL81 cells; type: cell-based; conditions: for CPE inhibition (%): VERO CCL81

T1 sequence (P07711 114-333): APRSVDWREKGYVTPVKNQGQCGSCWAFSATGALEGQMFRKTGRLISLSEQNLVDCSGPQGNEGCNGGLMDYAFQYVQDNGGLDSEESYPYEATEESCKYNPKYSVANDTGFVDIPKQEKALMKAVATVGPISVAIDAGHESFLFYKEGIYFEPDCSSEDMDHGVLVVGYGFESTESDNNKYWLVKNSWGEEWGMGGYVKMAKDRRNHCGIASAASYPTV

CCCC[C@@H](C=O)NC(=O)[C@H](CC(C)C)NC(=O)OCc1ccccc1 [Calpeptin, reference compound]
Cell viability (% control) ([1]; 0.0781 μM): 94.74 % control and 101.25 % control and 101.91 % control
Cell viability (% control) ([1]; 0.1563 μM): 97.56 % control and 99.32 % control and 100.01 % control
Cell viability (% control) ([1]; 0.3125 μM): 82.19 % control and 89.43 % control and 92.71 % control and 95.68 % control and 100.03 % control and 106.22 % control
Cell viability (% control) ([1]; 0.625 μM): 82.29 % control and 95.76 % control and 97.52 % control and 95.98 % control and 103.97 % control and 109.96 % control
Cell viability (% control) ([1]; 1.25 μM): 89.05 % control and 94.79 % control and 98.25 % control and 97.91 % control and 104.77 % control and 107.22 % control
Cell viability (% control) ([1]; 2.5 μM): 86.26 % control and 94.8 % control and 103.32 % control and 94.24 % control and 103.27 % control and 108.67 % control
Cell viability (% control) ([1]; 5 μM): 90.56 % control and 101.72 % control and 106.83 % control and 95.97 % control and 102.4 % control and 105.71 % control
Cell viability (% control) ([1]; 10 μM): 85.37 % control and 97.81 % control and 103.34 % control and 84.83 % control and 98.42 % control and 92.92 % control
cytotoxicity (in words) ([1]; VERO-CCL81, 72 h): no cytotoxicity up to low micromolar concentrations
EC50 [2]: 183 ± 65 nM
reversibility of covalent bond to cathepsin [3]: reversible
Residual activity (Vi/V0) ([4]; inhibitor 0.010 nM, 10 pM): 1.181 and 1.134 and 0.9277 and 1.059 and 0.8624 and 0.9348 and 0.9777 and 1.017 and 0.9832 and 0.6727
Residual activity (Vi/V0) ([4]; inhibitor 0.018 nM, 18 pM): 1.262 and 1.015 and 0.8756 and 0.9203 and 0.9271 and 0.9762 and 0.9712 and 1.058 and 1.013 and 1.061
Residual activity (Vi/V0) ([4]; inhibitor 0.032 nM, 32 pM): 1.274 and 1.3352 and 0.8294 and 0.9418 and 0.8372 and 0.9412 and 1.0025 and 0.9769 and 1.076 and 1.186
Residual activity (Vi/V0) ([4]; inhibitor 0.058 nM, 58 pM): 1.241 and 1.238 and 0.7232 and 0.8381 and 0.7506 and 0.9356 and 0.9293 and 0.9501 and 1.073 and 1.146
Residual activity (Vi/V0) ([4]; inhibitor 0.105 nM, 0.000105 µM): 1.299 and 0.9537 and 0.6352 and 0.6893 and 0.6342 and 0.9772 and 0.9319 and 0.9262 and 1.17 and 1.244
Residual activity (Vi/V0) ([4]; inhibitor 0.189 nM, 0.000189 µM): 1.276 and 0.7939 and 0.4796 and 0.5261 and 0.4831 and 0.8363 and 0.8485 and 0.8665 and 1.045 and 0.9948
Residual activity (Vi/V0) ([4]; inhibitor 0.340 nM, 0.00034 µM): 1.076 and 0.6362 and 0.1912 and 0.3311 and 0.2442 and 0.7013 and 0.6724 and 0.6039 and 0.9136 and 0.9341
Residual activity (Vi/V0) ([4]; inhibitor 0.612 nM, 0.000612 µM): 0.7699 and 0.3953 and 0.2966 and 0.328 and 0.2718 and 0.8608 and 0.8769 and 0.888 and 0.6121 and 0.7229
Residual activity (Vi/V0) ([4]; inhibitor 1.103 nM, 0.001103 µM): 0.6194 and 0.292 and 0.1922 and 0.2117 and 0.1777 and 0.7372 and 0.725 and 0.6702 and 0.5009 and 0.6045
Residual activity (Vi/V0) ([4]; inhibitor 1.985 nM, 0.001985 µM): 0.4333 and 0.2071 and 0.1127 and 0.1262 and 0.1102 and 0.4283 and 0.4219 and 0.4519 and 0.4308 and 0.4332
Ki ([4]; mean with standard deviation and 95% confidence interval, pH 5.5, 37 °C): 0.131 nM
cytotoxicity (in words) ([5]; LC-HK2, 72 h): no cytotoxicity up to low micromolar concentrations
Cell viability (% control) ([5]; 0.0006 μM): 102.39 % control and 97.09 % control and 90.2 % control
Cell viability (% control) ([5]; 0.0012 μM): 105.44 % control and 96.04 % control and 89.58 % control
Cell viability (% control) ([5]; 0.0024 μM): 109.38 % control and 90.68 % control and 83.12 % control
Cell viability (% control) ([5]; 0.0049 μM): 106.45 % control and 86.68 % control and 80.82 % control
Cell viability (% control) ([5]; 0.0098 μM): 103.61 % control and 82.95 % control and 76.92 % control
Cell viability (% control) ([5]; 0.0195 μM): 100.9 % control and 86.53 % control and 77.59 % control
Cell viability (% control) ([5]; 0.0391 μM): 106.77 % control and 84.3 % control and 75.79 % control
Cell viability (% control) ([5]; 0.0781 μM): 97.38 % control and 80.51 % control and 79.02 % control and 97.54 % control and 99.61 % control
Cell viability (% control) ([5]; 0.1563 μM): 92.74 % control and 97.96 % control and 106.67 % control and 94.71 % control and 97.7 % control and 98.23 % control
Cell viability (% control) ([5]; 0.3125 μM): 85.53 % control and 96.17 % control and 104.18 % control and 94.18 % control and 98.15 % control and 95.62 % control
Cell viability (% control) ([5]; 0.625 μM): 92.03 % control and 97.64 % control and 102.17 % control and 95.74 % control and 98.42 % control and 100.55 % control
Cell viability (% control) ([5]; 1.25 μM): 89.04 % control and 94.62 % control and 99.72 % control and 93.66 % control and 97.57 % control and 100.65 % control
Cell viability (% control) ([5]; 2.5 μM): 87.58 % control and 93.98 % control and 97.34 % control and 91.87 % control and 96.78 % control and 96.3 % control
Cell viability (% control) ([5]; 5 μM): 84.13 % control and 88.53 % control and 93.5 % control and 84.79 % control and 90.37 % control and 89.81 % control
Cell viability (% control) ([5]; 10 μM): 82.98 % control and 84.95 % control and 87.98 % control and 79.13 % control and 81.86 % control and 83.76 % control
Cell viability (% control) ([5]; 100 μM): 28.28 % control and 43.21 % control and 44.92 % control
inhibition at 0.3125 µM ([6]; Severe acute respiratory syndrome coronavirus 2, VERO CCL81, 0.3125 μM, two experiments, read-out: CPE inhibition (%)): 26.9%
inhibition at 0.625 µM ([6]; Severe acute respiratory syndrome coronavirus 2, VERO CCL81, 0.625 μM, two experiments, read-out: CPE inhibition (%)): 31.8%
inhibition at 1.25 µM ([6]; Severe acute respiratory syndrome coronavirus 2, VERO CCL81, 1.25 μM, two experiments, read-out: CPE inhibition (%)): 41.2%
inhibition at 2.5 µM ([6]; Severe acute respiratory syndrome coronavirus 2, VERO CCL81, 2.5 μM, two experiments, read-out: CPE inhibition (%)): 49.3%
inhibition at 5 µM ([6]; Severe acute respiratory syndrome coronavirus 2, VERO CCL81, 5 μM, two experiments, read-out: CPE inhibition (%)): 61.9%
inhibition at 10 µM ([6]; Severe acute respiratory syndrome coronavirus 2, VERO CCL81, 10 μM, two experiments, read-out: CPE inhibition (%)): 64.6%
EC50 ([6]; Severe acute respiratory syndrome coronavirus 2, VERO-CCL81, CellTiter-Glo, 48 h post-infection, read-out: CPE inhibition EC50): 400 nM
CPE inhibition (%) ([6]; 0.1563 μM, two experiments): 12.75% and 5.21%
CPE inhibition (%) ([6]; 0.3125 μM, two experiments): 21.14%
CPE inhibition (%) ([6]; 0.625 μM, two experiments): 29.81%
